From patent US20120269830A1, “CONJUGATES WITH IMPROVED PHARMACOKINETIC PROPERTIES” (priority 2009, published 2012)

Tests used:
db/db mice = test: Reduction of fasting blood glucose in db/db mice; assay type: in vivo; conditions: intravenous; for blood glucose at 4 and 8 hours post treatment: food access after 4 hours
Protocol: Synthetic GLP-1 peptide and recombinant GLP-1 Surrobody fusions were evaluated for their ability to lower plasma glucose in db/db mice. To reduce the effects of in vivo DPPIV proteolysis during the time course of the study GLP-1 both synthetic and recombinant GLP-1 functionally null Surrobodies used a GLP-1 variant containing a serine substitution for alanine at position 8 that reduces DPPIV inactivation. 8 db/db mice were used per group: Control SgG (3 mg/kg) (functionally null SgG that lacks the GLP-1 conjugate); GLP-1 peptide (0.8 mg/kg); GLP-1 SgG (1 mg/kg); and GLP-1 (3 mg/kg). Essentially db/db mice were matched by weight and relative blood glucose levels. Next, the subjects were injected intravenously with test article and isolated with access to water, but not food. Glucose levels were monitored by handheld glucometer after 1 hour and 4 hours. After 4 hours the mice were allowed free access to both food and water. An additional reading was made at 8 hours following drug administration.

[1] = target: Dipeptidyl protease IV (DPP-IV) (Homo sapiens, UniProt P27487); conditions: cited from earlier work
Chain of Dipeptidyl protease IV (DPP-IV) (P27487 whole entry): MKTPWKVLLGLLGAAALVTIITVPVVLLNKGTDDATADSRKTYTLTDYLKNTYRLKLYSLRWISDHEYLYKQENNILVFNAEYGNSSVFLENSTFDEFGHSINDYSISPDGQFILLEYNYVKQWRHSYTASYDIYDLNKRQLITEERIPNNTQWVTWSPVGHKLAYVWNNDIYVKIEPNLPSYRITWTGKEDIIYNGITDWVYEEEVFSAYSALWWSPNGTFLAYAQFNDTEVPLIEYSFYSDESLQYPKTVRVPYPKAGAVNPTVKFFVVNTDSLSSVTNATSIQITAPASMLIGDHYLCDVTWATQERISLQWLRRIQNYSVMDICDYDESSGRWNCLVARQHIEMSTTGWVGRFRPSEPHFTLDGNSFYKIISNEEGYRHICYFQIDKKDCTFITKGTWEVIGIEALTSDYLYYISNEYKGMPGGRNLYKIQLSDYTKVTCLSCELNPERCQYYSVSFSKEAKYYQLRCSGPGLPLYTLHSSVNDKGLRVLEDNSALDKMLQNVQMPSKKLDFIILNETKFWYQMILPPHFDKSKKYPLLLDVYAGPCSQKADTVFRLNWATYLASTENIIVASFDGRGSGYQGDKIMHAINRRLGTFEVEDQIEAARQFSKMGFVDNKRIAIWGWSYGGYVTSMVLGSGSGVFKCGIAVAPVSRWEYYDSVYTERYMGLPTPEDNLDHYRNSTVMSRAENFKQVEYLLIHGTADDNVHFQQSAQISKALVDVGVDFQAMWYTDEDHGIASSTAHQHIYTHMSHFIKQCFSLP

Row | Sequence | blood glucose after 1 hour (db/db mice; fasted, GLP-1 SgG 1 and 3 mg/kg, GLP-1 peptide 0.8 mg/kg) | blood glucose at 4 and 8 hours post treatment (db/db mice; GLP-1 SgG 1 and 3 mg/kg, GLP-1 peptide 0.8 mg/kg) | blood glucose at 4 and 8 hours post treatment (db/db mice; GLP-1 SgG 1 and 3 mg/kg, GLP-1 peptide 0.8 mg/kg, listed as GLP-1 peptide control) | resistance to proteolytic inactivation by DPP-IV [1] | blood glucose reduction overall, through 8 hours (db/db mice; 1 and 3 mg/kg, FIG. 17) | time to inactivation by DPP-IV [1]
1 | HSEGTFTSDVSSYLEGQAAKEFIAWLVKGRG [GLP-1 peptide, GLP-1 receptor agonist with serine for alanine substitution at position 8] | considerable blood glucose reduction | started to approach levels of control Surrobody | unable to maintain the same degree of blood glucose levels | markedly resistant |  | 
2 | HAEGTFTSDVSSYLEGQAAKEFIAWLVKGRG [GLP-1] |  |  |  |  | acutely reduces blood glucose through 8 hours | ≤ 2 min
